Patent publication US20100267561A1, “HERBICIDAL PYRIDAZINONE DERIVATIVES” (priority 2007, published 2010)
Where two headings read alike, the source gives them in different places.

Key:
Assay in all cases: Test B pre-/postemergence plant response
Type in all cases: in vivo
[1] = test system: morningglory (Ipomoea coccinea); settings: for Morningglory plant response rating: 8 g ai/ha; for pest or weed control at 16 g/ha / pest or weed control at 31 g/ha / pest or weed control at 62 g/ha: Ipomoea, read-out: Plant response rating, Morningglory; for pest or weed control at 16 g/ha: 16 g ai/ha; for pest or weed control at 31 g/ha: 31 g ai/ha; for pest or weed control at 62 g/ha: 62 g ai/ha
Method in brief: (§1)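 Visual scoring from 0 (no effect) to 100 (complete control) against untreated controls was done 13 to 15 days after greenhouse treatment. Chemicals were formulated in a surfactant-containing non-phytotoxic solvent and applied to soil preemergence or to 1- to 4-leaf (2-18 cm) plants postemergence.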

[2] = test system: wheat (Triticum aestivum); settings: for Wheat plant response rating: 8 g ai/ha; for plant injury at 16 g/ha: 16 g ai/ha; for plant injury at 62 g/ha: 62 g ai/ha
Method in brief: as §1

[3] = test system: common (oilseed) sunflower (Helianthus annuus); settings: Preemergence
Method in brief: as §1

[4] = test system: large crabgrass (Digitaria sanguinalis); settings: for Crabgrass, Large plant response rating: 8 g ai/ha; for pest or weed control at 16 g/ha / pest or weed control at 31 g/ha / pest or weed control at 62 g/ha: Digitaria sanguinalis, read-out: Plant response rating, Crabgrass, Large; for pest or weed control at 16 g/ha: 16 g ai/ha; for pest or weed control at 31 g/ha: 31 g ai/ha; for pest or weed control at 62 g/ha: 62 g ai/ha
Method in brief: as §1

[5] = test system: downy bromegrass (Bromus tectorum); settings: for Bromegrass, Downy plant response rating: 8 g ai/ha; for pest or weed control at 16 g/ha / pest or weed control at 31 g/ha / pest or weed control at 62 g/ha: Bromus tectorum, read-out: Plant response rating, Bromegrass, Downy; for pest or weed control at 16 g/ha: 16 g ai/ha; for pest or weed control at 31 g/ha: 31 g ai/ha; for pest or weed control at 62 g/ha: 62 g ai/ha
Method in brief: as §1

[6] = test system: velvetleaf (Abutilon theophrasti); settings: for Velvetleaf plant response rating: 8 g ai/ha; for pest or weed control at 16 g/ha: 16 g ai/ha; for pest or weed control at 62 g/ha: 62 g ai/ha
Method in brief: as §1

[7] = test system: corn (Zea mays); settings: 8 g ai/ha, postemergence; 0-100 scale
Method in brief: as §1

[8] = post-emergence, Postemergence, scale 0 to 100
[9] = post-emergence, Postemergence, scale 0 to 100, 0 no effect, 100 complete control
[10] = pre-emergence, Preemergence, scale 0 to 100 (0 no effect, 100 complete control)
[11] = pre-emergence, Preemergence, 0 to 100 scale, 0 no effect, 100 complete control
[12] = pre-emergence, Preemergence, scale 0 to 100

## CCc1c(C)c(-c2ccc(Cl)cc2)nn1-c1c(O)cnn(C)c1=O [Compound 26, 4-[3-(4-chlorophenyl)-5-ethyl-4-methyl-1H-pyrazol-1-yl]-5-hydroxy-2-methyl-3(2H)-pyridazinone]
[1]; postemergence, 0-100 scale
  Morningglory plant response rating: 0
[1]; [8]
  pest or weed control at 16 g/ha: 0%
[1]; [9]
  pest or weed control at 31 g/ha: 0%
  pest or weed control at 62 g/ha: 0%
[1]; [10]
  pest or weed control at 16 g/ha: 0%
[1]; [11]
  pest or weed control at 31 g/ha: 0%
[1]; [12]
  pest or weed control at 62 g/ha: 0%
[1]; Preemergence, scale 0 to 100
  Morningglory plant response rating: 0
[2]; postemergence, 0-100 scale
  Wheat plant response rating: 0
[2]; Preemergence, scale 0 to 100
  Wheat plant response rating: 0
[2]; Triticum aestivum, post-emergence, Postemergence, scale 0 to 100, read-out: Plant response rating, Wheat
  plant injury at 16 g/ha: 0%
[2]; Triticum aestivum, post-emergence, Postemergence, scale 0 to 100, 0 no effect, 100 complete control, read-out: Plant response rating, Wheat
  plant injury at 62 g/ha: 5%
[2]; Triticum aestivum, pre-emergence, Preemergence, scale 0 to 100 (0 no effect, 100 complete control), read-out: Plant response rating, Wheat
  plant injury at 16 g/ha: 0%
[2]; Triticum aestivum, pre-emergence, Preemergence, 31 g ai/ha, 0 to 100 scale, 0 no effect, 100 complete control, read-out: Plant response rating, Wheat
  plant injury at 31 g/ha: 0%
[2]; Triticum aestivum, pre-emergence, Preemergence, scale 0 to 100, read-out: Plant response rating, Wheat
  plant injury at 62 g/ha: 0%
[3]; Helianthus annuus, pre-emergence, 16 g ai/ha, scale 0 to 100 (0 no effect, 100 complete control), read-out: Plant response rating, Sunflower
  pest or weed control at 16 g/ha: 0%
[3]; Helianthus annuus, pre-emergence, 31 g ai/ha, 0 to 100 scale, 0 no effect, 100 complete control, read-out: Plant response rating, Sunflower
  pest or weed control at 31 g/ha: 0%
[3]; Helianthus annuus, pre-emergence, 62 g ai/ha, scale 0 to 100, read-out: Plant response rating, Sunflower
  pest or weed control at 62 g/ha: 0%
[3]; 8 g ai/ha, scale 0 to 100
  Sunflower plant response rating: 0
[4]; postemergence, 0-100 scale
  Crabgrass, Large plant response rating: 45
[4]; [8]
  pest or weed control at 16 g/ha: 60%
[4]; [9]
  pest or weed control at 31 g/ha: 80%
  pest or weed control at 62 g/ha: 80%
[4]; [10]
  pest or weed control at 16 g/ha: 65%
[4]; [11]
  pest or weed control at 31 g/ha: 70%
[4]; [12]
  pest or weed control at 62 g/ha: 95%
[4]; Preemergence, scale 0 to 100
  Crabgrass, Large plant response rating: 0
[5]; postemergence, 0-100 scale
  Bromegrass, Downy plant response rating: 0
[5]; [8]
  pest or weed control at 16 g/ha: 10%
[5]; [9]
  pest or weed control at 31 g/ha: 30%
  pest or weed control at 62 g/ha: 60%
[5]; [10]
  pest or weed control at 16 g/ha: 0%
[5]; [11]
  pest or weed control at 31 g/ha: 10%
[5]; [12]
  pest or weed control at 62 g/ha: 65%
[5]; Preemergence, scale 0 to 100
  Bromegrass, Downy plant response rating: 0
[6]; postemergence, 0-100 scale
  Velvetleaf plant response rating: 0
[6]; Abutilon theophrasti, post-emergence, Postemergence, scale 0 to 100, read-out: Plant response rating, Velvetleaf
  pest or weed control at 16 g/ha: 0%
[6]; Abutilon theophrasti, post-emergence, Postemergence, scale 0 to 100, 0 no effect, 100 complete control, read-out: Plant response rating, Velvetleaf
  pest or weed control at 62 g/ha: 0%
[6]; Abutilon theophrasti, pre-emergence, Preemergence, scale 0 to 100 (0 no effect, 100 complete control), read-out: Plant response rating, Velvetleaf
  pest or weed control at 16 g/ha: 0%
[6]; Abutilon theophrasti, pre-emergence, Preemergence, 31 g ai/ha, 0 to 100 scale, 0 no effect, 100 complete control, read-out: Plant response rating, Velvetleaf
  pest or weed control at 31 g/ha: 0%
[6]; Abutilon theophrasti, pre-emergence, Preemergence, scale 0 to 100, read-out: Plant response rating, Velvetleaf
  pest or weed control at 62 g/ha: 0%
[6]; Preemergence, scale 0 to 100
  Velvetleaf plant response rating: 0
[7]
  Corn plant response rating: 0
